According to ChEMBL document CHEMBL1201862, “PubChem BioAssay data set” (2004):
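Where inhibition never reached the appropriate level, the endpoint shown equals the highest concentration tested. Otherwise, values were interpolated linearly from a five-concentration, 48-hour dose response in 96-well plates. At the GI50, growth is halved.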 Active and inactive are the calls of the source. No stated cut-off is given here; in the data, active = GI50 up to about 1.1 µM and inactive = higher.

What was measured:
Test in all cases: NCI tumour cell line growth inhibition, 48 h
[1] = system: A549
[2] = system: BT-549
[3] = system: IGROV-1
[4] = system: KM12
[5] = system: LOX IMVI
[6] = system: M14
[7] = system: Malme-3M
[8] = system: NCI-H226
[9] = system: RPMI-8226
[10] = system: RXF 393
[11] = system: SF-539
[12] = system: SN12C
[13] = system: SNB-19
[14] = system: SNB-75
[15] = system: T47D
[16] = system: TK-10
[17] = system: UACC-62
[18] = system: UO-31
[19] = system: HOP-92
[20] = system: NCI-H522

SMILES	GI50 [1]	GI50 [2]	GI50 [3]	GI50 [4]	GI50 [5]	GI50 [6]	GI50 [7]	GI50 [8]	GI50 [9]	GI50 [10]	GI50 [11]	GI50 [12]	GI50 [13]	GI50 [14]	GI50 [15]	GI50 [16]	GI50 [17]	GI50 [18]	GI50 [19]	GI50 [20]
Cc1ccc(CC(=O)Nc2ccc(NC(=O)/C=C/NC(=O)/C=C/c3ccc(-c4ccccc4)cc3)cc2C(=O)c2ccccc2)cc1	1.77 µM (inactive)	1.46 µM (inactive)	0.975 µM (active)	2.93 µM (inactive)	2.03 µM (inactive)	2.56 µM (inactive)	3.39 µM (inactive)	2.42 µM (inactive)	2.4 µM (inactive)	1.46 µM (inactive)	1.67 µM (inactive)	1.92 µM (inactive)	3.05 µM (inactive)	1.93 µM (inactive)	2.84 µM (inactive)	2.78 µM (inactive)	2.16 µM (inactive)	3.67 µM (inactive)		
Cc1cnc2[nH]c(-c3cccc(Cl)c3)cc(=O)c2c1	0.0676 µM (active)	2.54 µM (inactive)	0.292 µM (active)	0.102 µM (active)	0.0438 µM (active)	0.0406 µM (active)	0.048 µM (active)	0.0708 µM (active)	< 0.0206 µM (active)	0.0367 µM (active)	0.0194 µM (active)		0.0769 µM (active)	0.0378 µM (active)		22.8 µM (inactive)	0.0224 µM (active)	1.7 µM (inactive)	> 100 µM (inactive)	0.0294 µM (active)
O=C(O)CSc1n[nH]c(=O)[nH]c1=O	> 100 µM (inactive)	> 100 µM (inactive)	> 100 µM (inactive)	> 100 µM (inactive)	> 100 µM (inactive)	> 100 µM (inactive)	> 100 µM (inactive)	> 100 µM (inactive)	> 100 µM (inactive)	> 100 µM (inactive)	> 100 µM (inactive)	> 100 µM (inactive)	> 100 µM (inactive)	> 100 µM (inactive)	> 100 µM (inactive)		> 100 µM (inactive)	> 100 µM (inactive)		> 100 µM (inactive)
C[C@@H]1S[C@H](c2c(F)cccc2Cl)n2c1nc1ccccc12	17.1 µM (inactive)	11.6 µM (inactive)	17.2 µM (inactive)	5.53 µM (inactive)	12.5 µM (inactive)	15.2 µM (inactive)	14.8 µM (inactive)	19.9 µM (inactive)	4.44 µM (inactive)	14.5 µM (inactive)	15 µM (inactive)	15.6 µM (inactive)	26.4 µM (inactive)	16.5 µM (inactive)	22.5 µM (inactive)	28.5 µM (inactive)	8.81 µM (inactive)	11.9 µM (inactive)	> 10 µM (inactive)	
O=C1C(NCCF)=C(Cl)C(=O)c2ncccc21	1.73 µM (inactive)	1.49 µM (inactive)	1.39 µM (inactive)	1.54 µM (inactive)	0.284 µM (active)	0.869 µM (active)	0.402 µM (active)	1.71 µM (inactive)	0.49 µM (active)	0.736 µM (active)	1 µM (active)	1.02 µM (active)	1.39 µM (inactive)	0.617 µM (active)	2.05 µM (inactive)	1.81 µM (inactive)	0.247 µM (active)		2.08 µM (inactive)	
O=S(=O)(NC(c1ccccc1)(c1cc2ccccc2[nH]1)c1cc2ccccc2n1S(=O)(=O)c1ccccc1)c1ccccc1 (centres undefined)	48.3 µM (inactive)	> 100 µM (inactive)	> 100 µM (inactive)	> 100 µM (inactive)	> 100 µM (inactive)	62.2 µM (inactive)	59.2 µM (inactive)	> 100 µM (inactive)	52.1 µM (inactive)				> 100 µM (inactive)	> 100 µM (inactive)	> 100 µM (inactive)	> 100 µM (inactive)	> 100 µM (inactive)	> 100 µM (inactive)	> 100 µM (inactive)	
c1ccc(C2(c3cc4ccccc4[nH]3)OCCO2)cc1	39.4 µM (inactive)	75.7 µM (inactive)	34 µM (inactive)	37.8 µM (inactive)	38 µM (inactive)	33.3 µM (inactive)		36.6 µM (inactive)	27.3 µM (inactive)	> 100 µM (inactive)	> 100 µM (inactive)	41.2 µM (inactive)	> 100 µM (inactive)	> 100 µM (inactive)	59.8 µM (inactive)	> 100 µM (inactive)	38.8 µM (inactive)	42.6 µM (inactive)	17.3 µM (inactive)	
CC(=O)N(C)CCc1c[nH]c2ccccc12	> 100 µM (inactive)	> 100 µM (inactive)	> 100 µM (inactive)	> 100 µM (inactive)	> 100 µM (inactive)	> 100 µM (inactive)	> 100 µM (inactive)	> 100 µM (inactive)	> 100 µM (inactive)		> 100 µM (inactive)	> 100 µM (inactive)	> 100 µM (inactive)	> 100 µM (inactive)	> 100 µM (inactive)	> 100 µM (inactive)	> 100 µM (inactive)	> 100 µM (inactive)		> 100 µM (inactive)
O=C1CCc2cc3c(cc21)C(C(=O)O)CC3 (centres undefined)	> 100 µM (inactive)	> 100 µM (inactive)	> 100 µM (inactive)	> 100 µM (inactive)	> 100 µM (inactive)	> 100 µM (inactive)	> 100 µM (inactive)	> 100 µM (inactive)	> 100 µM (inactive)	30.8 µM (inactive)	> 100 µM (inactive)	> 100 µM (inactive)	> 100 µM (inactive)	87.5 µM (inactive)	> 100 µM (inactive)	> 100 µM (inactive)	> 100 µM (inactive)	> 100 µM (inactive)		> 100 µM (inactive)
COc1ccc(Nc2nc3cc(C(F)(F)F)ccc3nc2C(=O)O)cc1		14.4 µM (inactive)	24 µM (inactive)	24 µM (inactive)	16.1 µM (inactive)		18.2 µM (inactive)	15.6 µM (inactive)		11.9 µM (inactive)		27 µM (inactive)	16 µM (inactive)	17.6 µM (inactive)		34.4 µM (inactive)	13.6 µM (inactive)	13.6 µM (inactive)		12.4 µM (inactive)
Cc1nn(C(=O)Cc2ccccc2)c2c1C(c1ccccc1[N+](=O)[O-])SC(=N)N2 (centres undefined)	> 100 µM (inactive)	> 100 µM (inactive)	> 100 µM (inactive)	> 100 µM (inactive)	> 100 µM (inactive)	> 100 µM (inactive)	> 100 µM (inactive)	> 100 µM (inactive)	> 100 µM (inactive)		> 100 µM (inactive)	> 100 µM (inactive)	> 100 µM (inactive)	83.4 µM (inactive)	> 100 µM (inactive)	> 100 µM (inactive)	> 100 µM (inactive)	> 100 µM (inactive)		> 100 µM (inactive)
